Data from US6737383B1, “Herbicidal oxadiazolidines” (priority 1999, dated 2004).

Key:
purple nutsedge = assay: Test B pre/postemergence purple nutsedge; assay type: in vivo, Cyperus rotundus
Summary of the method: (§1)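 Test chemicals in a non-phytotoxic solvent mixture with surfactant were sprayed preemergence onto planted seeds and postemergence onto plants 2 to 18 cm tall (1- to 4-leaf stage). After twelve to sixteen days in a greenhouse, injury was visually rated against untreated controls from 0 (no effect) to 10 (complete control).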

cocklebur = assay: Test B pre/postemergence cocklebur; assay type: in vivo, Xanthium strumarium
Summary of the method: as §1

wild oat = assay: Test B pre/postemergence wild oat; assay type: in vivo, Avena fatua
Summary of the method: as §1

rape = assay: Test B pre/postemergence rape; assay type: in vivo, Brassica napus
Summary of the method: as §1

pigweed = assay: Test B pre/postemergence pigweed; assay type: in vivo, Amaranthus retroflexus
Summary of the method: as §1

corn = assay: Test B pre/postemergence corn; assay type: in vivo, Zea mays
Summary of the method: as §1

wheat = assay: Test B pre/postemergence wheat; assay type: in vivo, Triticum aestivum
Summary of the method: as §1

surinam grass = assay: Test B pre/postemergence surinam grass; assay type: in vivo, Brachiaria decumbens
Summary of the method: as §1

soybean = assay: Test B pre/postemergence soybean; assay type: in vivo, Glycine max
Summary of the method: as §1

velvetleaf = assay: Test B pre/postemergence velvetleaf; assay type: in vivo, Abutilon theophrasti
Summary of the method: as §1

crabgrass = assay: Test B pre/postemergence crabgrass; assay type: in vivo, Digitaria sanguinalis
Summary of the method: as §1

bedstraw = assay: Test B pre/postemergence bedstraw; assay type: in vivo, Galium aparine
Summary of the method: as §1

giant foxtail = assay: Test B pre/postemergence giant foxtail; assay type: in vivo, Setaria faberii
Summary of the method: as §1

blackgrass = assay: Test B pre/postemergence blackgrass; assay type: in vivo, Alopecurus myosuroides
Summary of the method: as §1

morningglory = assay: Test B pre/postemergence morningglory; assay type: in vivo, Ipomoea hederacea
Summary of the method: as §1

sugar beet = assay: Test B pre/postemergence sugar beet; assay type: in vivo, Beta vulgaris
Summary of the method: as §1

[1] = Postemergence, Rate 62 g/ha, scale of 0 to 10, 0 is no effect, 10 is complete control
[2] = Postemergence, Rate 125 g/ha, scale 0 to 10, 0 is no effect, 10 is complete control
[3] = Postemergence, Rate 500 g/ha, scale 0 to 10, 0 is no effect, 10 is complete control
[4] = Preemergence, Rate 62 g/ha, scale of 0 to 10 where 0 is no effect and 10 is complete control
[5] = Preemergence, Rate 125 g/ha, scale 0 to 10, 0 is no effect, 10 is complete control
[6] = Preemergence, Rate 500 g/ha, scale of 0 to 10 where 0 is no effect and 10 is complete control
[7] = Rate 250 g/ha, Postemergence, scale of 0 to 10 where 0 is no effect and 10 is complete control

In the case of `CC(C)N(C(=O)n1oc(=O)n(CCCC(F)(F)F)c1=O)c1ccc(F)cc1F` [Compound 526], the “Nutsedge plant response rating” value (purple nutsedge; [1]) is reported as 0, the “Nutsedge plant response rating” value (purple nutsedge; [2]) is reported as 0 and the “Plant response rating, Nutsedge” value (purple nutsedge; [3]) is reported as 2. For the same molecule, the “Plant response rating, Nutsedge” value (purple nutsedge; [4]) was 0, the “Nutsedge plant response rating” value (purple nutsedge; [5]) was 0 and the “Nutsedge plant response rating (0 to 10 scale)” value (purple nutsedge; Preemergence, Rate 250 g/ha) was 0. For the same molecule, the “Nutsedge plant response rating” value (purple nutsedge; [6]) was 0, the “Plant response rating, Nutsedge” value (purple nutsedge; [7]) was 0 and the “Cocklebur plant response rating” value (cocklebur; [1]) was 0. For the same molecule, the “Cocklebur plant response rating” value (cocklebur; [2]) was 0, the “Plant response rating, Cocklebur” value (cocklebur; [3]) was 2 and the “Plant response rating, Cocklebur” value (cocklebur; [4]) was 0. The “Cocklebur plant response rating” value (cocklebur; [5]) was 0, the “Cocklebur plant response rating (0 to 10 scale)” value (cocklebur; Preemergence, Rate 250 g/ha) was 0 and the “Cocklebur plant response rating” value (cocklebur; [6]) was 0. The “Plant response rating, Cocklebur” value (cocklebur; [7]) was 0, the “Wild oats plant response rating” value (wild oat; [1]) was 0 and the “Wild oats plant response rating” value (wild oat; [2]) was 0. The “Plant response rating, Wild oats” value (wild oat; [3]) was 0, the “Plant response rating, Wild oats” value (wild oat; [4]) was 7 and the “Wild oats plant response rating” value (wild oat; [5]) was 9. The “Wild oats plant response rating (0 to 10 scale)” value (wild oat; Preemergence, Rate 250 g/ha) was 9, the “Plant response rating, Wild oats” value (wild oat; [7]) was 0 and the “Rape plant response rating” value (rape; [1]) was 0. For the same molecule, the “Rape plant response rating” value (rape; [2]) was 4, the “Plant response rating, Rape” value (rape; [3]) was 4 and the “Plant response rating, Rape” value (rape; [4]) was 4. The “Rape plant response rating” value (rape; [5]) was 4, the “Rape plant response rating (0 to 10 scale)” value (rape; Preemergence, Rate 250 g/ha) was 9 and the “Redroot pigweed plant response rating” value (pigweed; [1]) was 0. The “Redroot pigweed plant response rating” value (pigweed; [2]) was 0, the “Plant response rating, Redroot pigweed” value (pigweed; [3]) was 4 and the “Plant response rating, Redroot pigweed” value (pigweed; [4]) was 4. For the same molecule, the “Redroot pigweed plant response rating” value (pigweed; [5]) was 4, the “Redroot pigweed plant response rating (0 to 10 scale)” value (pigweed; Preemergence, Rate 250 g/ha) was 4 and the “Plant response rating, Redroot pigweed” value (pigweed; [7]) was 2. For the same molecule, the “Corn plant response rating” value (corn; [1]) was 0, the “Corn plant response rating” value (corn; [2]) was 2 and the “Plant response rating, Corn” value (corn; [3]) was 2. The “Plant response rating, Corn” value (corn; [4]) was 0, the “Corn plant response rating” value (corn; [5]) was 0 and the “Corn plant response rating (0 to 10 scale)” value (corn; Preemergence, Rate 250 g/ha) was 0. The “Corn plant response rating” value (corn; [6]) was 2, the “Plant response rating, Corn” value (corn; [7]) was 2 and the “Wheat plant response rating” value (wheat; [1]) was 0. For the same molecule, the “Wheat plant response rating” value (wheat; [2]) was 0, the “Plant response rating, Wheat” value (wheat; [3]) was 0 and the “Plant response rating, Wheat” value (wheat; [4]) was 0. The “Wheat plant response rating” value (wheat; [5]) was 0, the “Wheat plant response rating (0 to 10 scale)” value (wheat; Preemergence, Rate 250 g/ha) was 8 and the “Plant response rating, Wheat” value (wheat; [7]) was 0. The “B. signalgrass plant response rating” value (surinam grass; [1]) was 0, the “B. signalgrass plant response rating” value (surinam grass; [2]) was 2 and the “Plant response rating, B. signalgrass” value (surinam grass; [3]) was 6. The “Plant response rating, B. signalgrass” value (surinam grass; [4]) was 8, the “B. signalgrass plant response rating” value (surinam grass; [5]) was 9 and the “B. signalgrass plant response rating (0 to 10 scale, 0 is no effect, 10 is complete control)” value (surinam grass; Preemergence, Rate 250 g/ha) was 9. For the same molecule, the “Plant response rating, B. signalgrass” value (surinam grass; [7]) was 4, the “Soybean plant response rating” value (soybean; [1]) was 2 and the “Soybean plant response rating” value (soybean; [2]) was 3. For the same molecule, the “Plant response rating, Soybean” value (soybean; [3]) was 3, the “Plant response rating, Soybean” value (soybean; [4]) was 0 and the “Soybean plant response rating” value (soybean; [5]) was 0. The “Soybean plant response rating (0 to 10 scale)” value (soybean; Preemergence, Rate 250 g/ha) was 0, the “Soybean plant response rating” value (soybean; [6]) was 0 and the “Plant response rating, Soybean” value (soybean; [7]) was 3. The “Velvetleaf plant response rating” value (velvetleaf; [1]) was 4, the “Velvetleaf plant response rating” value (velvetleaf; [2]) was 4 and the “Plant response rating, Velvetleaf” value (velvetleaf; [3]) was 8. For the same molecule, the “Plant response rating, Velvetleaf” value (velvetleaf; [4]) was 0, the “Velvetleaf plant response rating” value (velvetleaf; [5]) was 2 and the “Velvetleaf plant response rating (0 to 10 scale)” value (velvetleaf; Preemergence, Rate 250 g/ha) was 2. For the same molecule, the “Velvetleaf plant response rating” value (velvetleaf; [6]) was 3, the “Plant response rating, Velvetleaf” value (velvetleaf; [7]) was 7 and the “Crabgrass plant response rating” value (crabgrass; [1]) was 6. For the same molecule, the “Crabgrass plant response rating” value (crabgrass; [2]) was 9, the “Plant response rating, Crabgrass” value (crabgrass; [3]) was 10 and the “Plant response rating, Crabgrass” value (crabgrass; [4]) was 9. For the same molecule, the “Crabgrass plant response rating” value (crabgrass; [5]) was 10, the “Crabgrass plant response rating (0 to 10 scale)” value (crabgrass; Preemergence, Rate 250 g/ha) was 10 and the “Crabgrass plant response rating” value (crabgrass; [6]) was 10. The “Plant response rating, Crabgrass” value (crabgrass; [7]) was 9, the “Plant response rating, Bedstraw” value (bedstraw; [3]) was 9 and the “Plant response rating, Bedstraw” value (bedstraw; [4]) was 0. The “Bedstraw plant response rating” value (bedstraw; [5]) was 0, the “Bedstraw plant response rating (0 to 10 scale)” value (bedstraw; Preemergence, Rate 250 g/ha) was 7 and the “Giant foxtail plant response rating” value (giant foxtail; [1]) was 3. The “Giant foxtail plant response rating” value (giant foxtail; [2]) was 3, the “Plant response rating, Giant foxtail” value (giant foxtail; [3]) was 8 and the “Plant response rating, Giant foxtail” value (giant foxtail; [4]) was 9. For the same molecule, the “Giant foxtail plant response rating” value (giant foxtail; [5]) was 10, the “Giant foxtail plant response rating (0 to 10 scale)” value (giant foxtail; Preemergence, Rate 250 g/ha) was 10 and the “Giant foxtail plant response rating” value (giant foxtail; [6]) was 10. The “Plant response rating, Giant foxtail” value (giant foxtail; [7]) was 7, the “Blackgrass plant response rating” value (blackgrass; [1]) was 3 and the “Blackgrass plant response rating” value (blackgrass; [2]) was 6. The “Plant response rating, Blackgrass” value (blackgrass; [3]) was 7, the “Plant response rating, Blackgrass” value (blackgrass; [4]) was 7 and the “Blackgrass plant response rating” value (blackgrass; [5]) was 9. For the same molecule, the “Blackgrass plant response rating (0 to 10 scale)” value (blackgrass; Preemergence, Rate 250 g/ha) was 10, the “Plant response rating, Blackgrass” value (blackgrass; [7]) was 9 and the “Morningglory plant response rating” value (morningglory; [1]) was 6. For the same molecule, the “Morningglory plant response rating” value (morningglory; [2]) was 6, the “Plant response rating, Morningglory” value (morningglory; [3]) was 7 and the “Plant response rating, Morningglory” value (morningglory; [4]) was 0. The “Morningglory plant response rating” value (morningglory; [5]) was 0, the “Morningglory plant response rating (0 to 10 scale)” value (morningglory; Preemergence, Rate 250 g/ha) was 0 and the “Morningglory plant response rating” value (morningglory; [6]) was 2. The “Plant response rating, Morningglory” value (morningglory; [7]) was 6, the “Sugarbeets plant response rating” value (sugar beet; [1]) was 0 and the “Sugarbeets plant response rating” value (sugar beet; [2]) was 0. The “Plant response rating, Sugarbeets” value (sugar beet; [3]) was 0, the “Plant response rating, Sugarbeets” value (sugar beet; [4]) was 4 and the “Sugarbeets plant response rating” value (sugar beet; [5]) was 6. For the same molecule, the “Sugarbeets plant response rating (0 to 10 scale)” value (sugar beet; Preemergence, Rate 250 g/ha) was 8, the “Sugarbeets plant response rating” value (sugar beet; [6]) was 8 and the “Plant response rating, Sugarbeets” value (sugar beet; [7]) was 0.
